1 molecule from patent publication US12076307B2, “Compositions for prevention or treatment of acute radiation syndrome and other radiation exposure” (priority 2017, dated 2024) can be followed below.

In data set [1] the test system is BALB/c mice, 6.11 Gy γ-radiation TBI. Briefly: Hematopoietic ARS (H-ARS) CBC time course, 6.11 Gy. Type of data set: in vivo, mouse. The protocol:
For the time course analysis of hematopoietic ARS (H-ARS), female mice were grouped 5 per treatment cohorts; γ-radiation only cohort (positive control) and γ-radiation with EC-18 250 mg/kg cohort. For the analysis of dose effect of EC-18 administration on H-ARS, mice were grouped 8 (5 males and 3 females) per treatment cohorts; γ-radiation only cohort (positive control), γ-radiation with EC-18 50 mg/kg cohort, γ-radiation with EC-18 100 mg/kg cohort, γ-radiation with EC-18 250 mg/kg cohort and γ-radiation with EC-18 100 mg/kg cohort. The whole blood was collected from the orbital sinuses using EDTA-free capillary tubes (Kimble Chase Life Science and Research Products LLC, FL, USA) and collection tubes containing K3E-K3EDTA (Greiner Bio-One International, Kremsmunster, Austria).
The therapeutic effect of EC-18 administration on H-ARS was then evaluated. […] Groups of BALB/c mice (n=5, female for FIG. 32A through FIG. 32E and n=8, 5 male, 3 female for FIG. 32F through FIG. 32J) were exposed to 6.11Gy of γ-radiation and various doses of EC-18 were orally administered once daily to day 15, or remained untreated. FIGS. 32A through 32E show the time course of the white blood cell count (WBC; FIG. 32A), absolute Neutrophil count (ANC; FIG. 32B), absolute Lymphocyte count (ALC; FIG. 32C), platelet count (PLT; FIG. 32D) and red blood cell count (RBC; FIG. 32E) over 15 days, respectively. FIG. 32F through FIG. 32J show the dose effect of EC-18 administration on WBC (FIG. 32F), ANC (FIG. 32G), ALC (FIG. 32H), PLT (FIG. 32I) and BRC (FIG. 32J) on day 15, respectively. ns; not significant,* p<0.05, **p<0.01, *** p<0.005.

Data set [2] relates to Balb/c mice, gamma-ray 6.11 Gy. The data set is described as follows: DAMP (HMGB1, S100A9) in blood of irradiated mice. Type of data set: in vivo, mouse. As to conditions: 50 and 250 mg/kg oral 3 days from day 1. How it is done: To confirm the proposed mechanism of EC-18 in the in vivo model, female Balb/c mice were irradiated with a gamma-ray of 6.11 Gy on day 0. Then, EC-18 (50 and 250 mg/kg) or PBS was orally administered for 3 consecutive days from day 1 and the mice were sacrificed on the third day. […] While, from the EC-18-treated group, the amount of DAMP reduced compared to the control group, supporting the proposed mechanism of EC-18. Establishment of a Balb/C Mouse Model for ARS

Data set [3] can be described thus: In vitro plasma stability, rat plasma. As to conditions: Rats; 1 μM; 37° C.; n=3. Type of data set: in vitro ADME. The protocol: To assess the stability of EC-18 in plasma, the test material, or the standard reference material (test concentration 1 μM) was mixed with rat and human plasma and allowed to react for 1 hr at 37° C. Then, the residual EC-18 concentration was measured by LC-MS/MS. As standard reference materials, albendazole (a drug with high plasma stability) and vinpocetine (a drug with low plasma stability) were tested in parallel. When allowed to react with rat and human plasma for 1 hr, the residual EC-18 concentration in both rat and human plasma was >99% of the initial dose.

Data set [4] is described as follows: Plasma protein binding by rapid equilibrium dialysis, rat. Particulars: Rats, 4 hrs RED, n=3. The protocol: The plasma protein binding ability of EC-18 was tested by rapid equilibrium dialysis (RED). The chamber separated by a dialysis tubing membrane (cut-off: 8 kDa) was filled on one side with rat or human plasma mixed with phosphate buffer and on the other side with rat or human plasma mixed with the test or standard reference material (test concentration: 1 μM).
On the technique in general: In equilibrium dialysis free small molecules cross a membrane that holds back macromolecules.

A short description of data set [5]: In vitro metabolic stability / metabolite screening, statements over all species. Type of data set: in vitro ADME, rat, dog, monkey, human. How it is done:
(§1) [^14C]EC-18 or the positive control (7-ethoxycoumarin; 7-EC) reacted with microsomes prepared from hepatocytes of rats, dogs, monkeys, and humans, with or without cofactors, for 60 and 120 min. Then, the residual EC-18 concentration over time was measured by LC-RID ([^14C]EC-18) or LC-MS/MS (7-EC) (FIG. 63 and FIG. 64).
(§2) The LC-RID chromatographic profiles of radioactive metabolites produced in the 2-hr incubation reaction mixtures of the same test systems A, B, and C used to assess the metabolic and non-metabolic elimination rates of EC-18 were compared to the LC-UV chromatographic profiles of the synthetic reference material. […] The relative radioactivity of EC-18 accounted for 42-67% of total radioactivity. The peaks designated as M2, M3, and M5 were also determined in all species, and their relative radioactivity accounted for 12-34% of total radioactivity. The peaks of M4 and M6 were determined in monkeys and humans. M1 was abundantly detected in all species, but it was assumed to be a peak of early elution. The LC-UV chromatograms of reaction mixtures in each test system (FIGS. 65A-65C) and the relative radioactivity of the screened metabolites are shown in Table 25.

Data set [6] can be described thus: In vitro metabolite screening, rat liver microsomes. As to conditions: N=2. Type of data set: in vitro ADME. The protocol:
as §1, §2
(In general: Microsomes from liver hold many membrane-bound enzymes, among them those of drug oxidation.)

Data set [7] deals with CYP3A4 (Homo sapiens, UniProt P08684). Briefly: CYP enzyme inhibition in human liver microsomes, CYP3A4. An excerpt:
CYP1A2, CYP2C9, CYP2C19, CYP2D6, and CYP3A4 are the CYP subfamily, which plays a critical role in the metabolism of most drugs.

Data set [8] addresses T1, OAT1 (Homo sapiens, UniProt Q4U2R8).
T1 construct: expressed in transfected cells; host or cells: HEK-293
The data set is described as follows: Drug transporter inhibition, OAT1. As to conditions: 100 nM [3H] para-aminohippuric acid; transfected HEK-293 cells. Type of data set: in vitro ADME. How it is done: This study examined the potential of EC-18 to interact with the transporter proteins that have been known to be involved in the absorption of commercially available drugs. EC-18 was pre-incubated with HEK-293 cells and LLC-PK1 cells that were transfected with the genes of most drug transporters as follows: OATP1B1, OATP1B3, OAT1, OAT3 and OCT2, and BCRP and P-gp, respectively.

Data set [9] relates to Beagle dog. Briefly: Single-dose toxicity, Beagle dog. As to conditions: Oral, Days 1, 5, 9, 13. Type of data set: in vivo. The source says: (§3) Various toxicology studies have been performed. All studies were GLP-compliant unless otherwise noted.
In data set [10] the test system is ICR mouse. Briefly: Micronucleus assay. Type of data set: in vivo. As to conditions: Oral; Single; 0, 500, 1000, 2000 mg/kg.
From the text: as §3

The mark [11] stands for this setting: EC-18 250 mg/kg daily, n=5 female.

Chain of CYP3A4 (P08684 whole entry): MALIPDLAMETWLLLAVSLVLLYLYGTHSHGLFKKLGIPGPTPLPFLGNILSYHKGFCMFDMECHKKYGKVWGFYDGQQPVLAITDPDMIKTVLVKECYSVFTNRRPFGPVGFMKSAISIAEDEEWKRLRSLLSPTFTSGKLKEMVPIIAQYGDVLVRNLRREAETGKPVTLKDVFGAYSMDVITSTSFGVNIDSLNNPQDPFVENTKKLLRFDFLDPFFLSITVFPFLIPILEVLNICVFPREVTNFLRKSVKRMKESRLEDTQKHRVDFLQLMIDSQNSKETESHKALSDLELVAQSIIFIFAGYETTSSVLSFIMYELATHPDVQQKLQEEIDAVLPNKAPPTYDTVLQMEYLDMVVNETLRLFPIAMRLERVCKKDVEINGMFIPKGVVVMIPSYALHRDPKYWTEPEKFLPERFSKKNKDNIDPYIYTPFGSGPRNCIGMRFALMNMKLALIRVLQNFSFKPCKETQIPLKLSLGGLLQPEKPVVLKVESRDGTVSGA
T1 sequence (Q4U2R8 whole entry, species assumed): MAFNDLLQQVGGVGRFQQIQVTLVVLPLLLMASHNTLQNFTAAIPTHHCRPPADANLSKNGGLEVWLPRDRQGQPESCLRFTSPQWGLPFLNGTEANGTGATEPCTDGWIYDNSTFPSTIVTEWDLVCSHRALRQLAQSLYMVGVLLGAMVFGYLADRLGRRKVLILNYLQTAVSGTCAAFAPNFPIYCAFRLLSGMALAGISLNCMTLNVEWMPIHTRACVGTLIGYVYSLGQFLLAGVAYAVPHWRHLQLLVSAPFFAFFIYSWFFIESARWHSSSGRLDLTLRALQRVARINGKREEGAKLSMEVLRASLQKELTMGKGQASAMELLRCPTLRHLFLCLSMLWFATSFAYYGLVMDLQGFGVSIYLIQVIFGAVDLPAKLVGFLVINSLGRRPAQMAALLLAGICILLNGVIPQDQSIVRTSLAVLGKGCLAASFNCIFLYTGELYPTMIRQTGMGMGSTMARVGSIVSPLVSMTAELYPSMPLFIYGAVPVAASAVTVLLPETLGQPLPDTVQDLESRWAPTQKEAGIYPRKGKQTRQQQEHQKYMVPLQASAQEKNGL

Turning to `CCCCC/C=C\C/C=C\CCCCCCCC(=O)OC(COC(C)=O)COC(=O)CCCCCCCCCCCCCCC` (stereo not shown) [EC-18, 1-palmitoyl-2-linoleoyl-3-acetylglycerol], in data set [1] (setting [11]), the “duration of severe neutropenia” value turned out to be 7.2 ± 1.79 days, the “mean first day of neutropenia (ANC<500 cells/μL)” value was found to be 2.2 ± 1.09 days and the “mean nadir of ANC” value was 20.0±10.00 cells/μL. Besides, in [1] (oral once daily to day 15), the “reduction of PLT and RBC induced by a single TBI” value is on record as “attenuated”; the “γ-radiation-induced depletion of WBC, ANC and ALC” value was “significantly attenuated”. The “amount of DAMP (HMGB1, S100A9) in blood vs control group” value in data set [2] is “reduced”. The “Residual Concentration Relative to the Initial Dose After Reaction for 1 hr in Plasma” value in [3] is reported as greater than 99%. The “Plasma Protein Binding Rate” value in [4] (1 μM) came out at 98.8 ± 0.5%. This molecule also yielded a fraction unbound at 4 hrs, 1 μM in data set [4] (rat, plasma, Plasma Protein Binding Rate) of less than 0.01. For the same molecule, in [5] (2-hr incubation, all species and test systems), the “relative radioactivity of total radioactivity” value was 42-67%. For the same molecule, the “residual EC-18 concentration relative to initial concentration” value in data set [5] (1 hr, test systems A, B, C, all species) is on record as no less than 50%. Besides, the “order of residual EC-18 concentration” value in data set [5] (2 hrs) is “human>rat and dog>monkey”. The “residual EC-18 concentration” value in data set [5] (2 hrs, all test systems, all species except monkeys) was no less than 50%. For the same molecule, the “Mean Peak Area in LC-RID” value in data set [6] (A (NADPH added), [14C]EC-18 2 hrs) is listed as 61.8%. The “Mean Peak Area in LC-RID” value in data set [6] (B (NADPH, PAPS, UDPGA added), 2 hrs) is on record as 51.9%. Also, the “Mean Peak Area in LC-RID” value in [6] (C (no cofactor added), 2 hrs) is listed as 58.8%. For the same molecule, the half-maximal inhibitory concentration (IC50) in [7] was found to be 26.8 µM. Also, in [8], the half-maximal inhibitory concentration (IC50) is greater than 32 µM. In addition, the Approximate lethal dose entry in data set [9] was “dose: >2000 mg/kg”. In addition, the mortality result in [9] (0, 500, 1000, 1500, 2000 mg/kg) is given as “No dead animals”. Moreover, the findings entry in data set [9] (up to 2000 mg/kg) is reported as “No specific findings”. Also, the “micronucleus induction in mouse bone marrow cells” value in data set [10] was “EC-18 does not affect”.

Broadly, the fraction unbound is the share of the substance not bound to proteins or other matrix. The low end stands for extensive binding, the high end for weak binding. The IC50 is the concentration at which inhibition is half-maximal.
